From patent US20080188837A1, “Local Delivery of Drugs or Substances Using Electronic Permeability Increase” (priority 2004, published 2008)

Assays:
Format in all cases: in vitro ADME, Wistar rat
[1] = system: jejunal tissue samples (upper jejunum); assay: In vitro permeation of octreotide via jejunal tissue in diffusion chamber 500 under LITV pulses (FIGS. 27-36); settings: for octreotide permeation vs control group: FIG. 29; for permeation efficiency, effect of electrode material: FIG. 34
Description: (§1) The samples were analyzed for their content of octreotide by HPLC-UV 205 nm spectroscopy (Hewlett-Packard 1100). […] A 100×3 mm C18 column was used.

[2] = system: upper jejunum tissue segments; assay: In vitro permeation of octreotide through rat upper jejunum in a diffusion chamber, with and without LITV pulses (FIG. 24); settings: 12 Hz monophasic pulses, 1 millisecond, 3 mA, vs control chamber without electrical stimulation, 1 mg/ml donor, 90-minute period
Text: The distance between electrode centers was 10 mm.

[3] = system: distal ileum tissue samples; assay: In vitro permeation of octreotide via distal ileum tissue in diffusion chamber 500 under LITV pulses (FIG. 36); settings: 18 Hz, 3 mA, 1 millisecond, at 7 minutes, vs non-stimulated control
Description: as §1

[4] = system: proximal ileum tissue samples; assay: In vitro permeation of octreotide via proximal ileum tissue in diffusion chamber 500 under LITV pulses (FIG. 36); settings: 18 Hz, 3 mA, 1 millisecond, at 7 minutes, vs non-stimulated control
Description: as §1

C[C@@H](O)[C@@H]1NC(=O)[C@H](CCCCN)NC(=O)[C@@H](Cc2c[nH]c3ccccc23)NC(=O)[C@H](Cc2ccccc2)NC(=O)[C@@H](NC(=O)[C@H](N)Cc2ccccc2)CSSC[C@@H](C(=O)N[C@H](CO)[C@@H](C)O)NC1=O [octreotide, octreotide acetate]
permeation efficiency, effect of pulse cycle ([1]; 1 pulse per cycle among 1, 2, 3 pulses per cycle, 18 Hz, 3 mA, 1 millisecond, FIG. 31): greatest permeation efficiency
transport enhancement ratio (ER), effect of pulse frequency ([1]; 18 Hz among 5, 12, 18, 24, 30, 60 Hz, 1 millisecond, 3 mA, at 30 minutes, FIG. 28): greatest enhancement ratio
permeation efficiency, effect of cessation of pulse application ([1]; continuous application of pulses vs cessation after 10 minutes (n=1), 18 Hz, 3 mA, 1 millisecond, normalized to control group of FIG. 27, FIG. 35): substantially greater permeation efficiency
magnitude of permeation efficiency, effect of electrode distance from jejunal tissue ([1]; electrode distance 0.5 mm (n=2) vs 3 mm (n=6), 18 Hz, 3 mA, 1 millisecond, at 15 minutes, FIG. 32): greater at 0.5 mm than at 3 mm
permeation efficiency, effect of pulse application by intestinal region ([1]; jejunal tissue, 18 Hz, 3 mA, 1 millisecond, at 7 minutes, vs non-stimulated control, FIG. 36): greatest effect of pulse application
permeation efficiency, trend with number of pulses per cycle ([1]; number of pulses per cycle increased from 1 to 2 to 3 (5-millisecond intervals), 18 Hz, 3 mA, 1 millisecond, FIG. 31): the permeation efficiency decreased
transport enhancement ratio (ER), effect of pulse duration ([1]; pulse duration 1 millisecond among 0.2, 0.5, 1, 3 milliseconds, 18 Hz, 3 mA, at 15 minutes, FIG. 30): greatest enhancement ratio
octreotide permeation (permeation efficiency) ([1]; pulses 1 millisecond, 18 Hz, 3 mA (n=6) vs non-stimulated control group (n=3), FIG. 27): substantially enhanced octreotide permeation
octreotide permeation vs control group ([1]; pulses at 5 Hz (n=1), 1 millisecond, 3 mA): did not yield a higher octreotide permeation
octreotide permeation vs control group ([1]; pulses at 60 Hz (n=1), 1 millisecond, 3 mA): did not yield a higher octreotide permeation
permeation efficiency, effect of electrode material ([1]; silver chloride (AgCl) electrodes (n=2), 18 Hz, 3 mA, 1 millisecond): did not increase permeation efficiency
permeation efficiency, effect of electrode material ([1]; stainless steel (SS316L) electrodes (n=6), 18 Hz, 3 mA, 1 millisecond): substantially increased permeation efficiency
permeation efficiency, effect of electrode material ([1]; titanium nitride (TN) electrodes (n=3), 18 Hz, 3 mA, 1 millisecond): did not increase permeation efficiency
permeation efficiency, effect of electrode insulation ([1]; without divider 528, electrodes not insulated from each other (n=1), 18 Hz, 3 mA, 1 millisecond, FIG. 33): did not increase permeation efficiency
octreotide permeation into acceptor cell [2]: substantially greater increase in octreotide permeation
permeation efficiency, effect of pulse application by intestinal region [3]: positive but less pronounced effect
permeation efficiency, effect of pulse application by intestinal region [4]: increased permeation efficiency
